Assay results published in ChEMBL document CHEMBL1201862, “PubChem BioAssay data set” (2004).
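Growth conditions: 96-well plates. Treatment: test compound, 48 hours, 5 concentrations. Analysis: linear interpolation between bracketing concentrations; unreached endpoints set to highest concentration. GI50: concentration for 50% inhibition of growth.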 Active and inactive are the calls of the source. Rule as the data show it: active = GI50 up to about 1.1 µM and inactive = higher.

Assays:
Assay in all cases: NCI anticancer screen, dose series, 48 h
Malme-3M = tested on: Malme-3M
DMS-114 = tested on: DMS-114
TK-10 = tested on: TK-10
HOP-62 = tested on: HOP-62
RPMI-8226 = tested on: RPMI-8226
M14 = tested on: M14
IGROV-1 = tested on: IGROV-1
DMS-273 = tested on: DMS-273
UACC-257 = tested on: UACC-257
LOX IMVI = tested on: LOX IMVI
HCT-15 = tested on: HCT-15
HL-60 = tested on: HL-60
OVCAR-8 = tested on: OVCAR-8
HCC 2998 = tested on: HCC 2998
K562 = tested on: K562
A549 = tested on: A549
CAKI-1 = tested on: CAKI-1
EKVX = tested on: EKVX
DLD-1 = tested on: DLD-1
LXFL 529 = tested on: LXFL 529
SNB-19 = tested on: SNB-19
SK-MEL-28 = tested on: SK-MEL-28
SW-620 = tested on: SW-620
UO-31 = tested on: UO-31
U-251 = tested on: U-251
RXF 393 = tested on: RXF 393
OVCAR-5 = tested on: OVCAR-5
HOP-92 = tested on: HOP-92
SK-OV-3 = tested on: SK-OV-3
OVCAR-4 = tested on: OVCAR-4
SF-295 = tested on: SF-295
COLO 205 = tested on: COLO 205
NCI-H460 = tested on: NCI-H460
SK-MEL-5 = tested on: SK-MEL-5
UACC-62 = tested on: UACC-62
KM12 = tested on: KM12
MOLT-4 = tested on: MOLT-4
HT-29 = tested on: HT-29
HCT-116 = tested on: HCT-116
SN12C = tested on: SN12C
786-0 = tested on: 786-0
SK-MEL-2 = tested on: SK-MEL-2
KM-20L2 = tested on: KM-20L2
M19-MEL = tested on: M19-MEL
CCRF-CEM = tested on: CCRF-CEM
SNB-75 = tested on: SNB-75
ACHN = tested on: ACHN
NCI-H226 = tested on: NCI-H226
XF498 = tested on: XF498
OVCAR-3 = tested on: OVCAR-3
SF-539 = tested on: SF-539
SF-268 = tested on: SF-268
NCI-H522 = tested on: NCI-H522
SR = tested on: SR
NCI-H23 = tested on: NCI-H23
A498 = tested on: A498
SNB-78 = tested on: SNB-78

CC(C)(C)C(=O)Nc1ccccc1Br
GI50 (Malme-3M): > 100 µM (inactive) | GI50 (DMS-114): > 100 µM (inactive) | GI50 (TK-10): > 100 µM (inactive) | GI50 (HOP-62): > 100 µM (inactive) | GI50 (RPMI-8226): > 100 µM (inactive) | GI50 (M14): > 100 µM (inactive) | GI50 (IGROV-1): > 100 µM (inactive) | GI50 (DMS-273): > 100 µM (inactive) | GI50 (UACC-257): > 100 µM (inactive) | GI50 (LOX IMVI): > 100 µM (inactive) | GI50 (HCT-15): > 100 µM | GI50 (HL-60): > 100 µM (inactive) | GI50 (OVCAR-8): > 100 µM (inactive) | GI50 (HCC 2998): > 100 µM (inactive) | GI50 (K562): > 100 µM (inactive) | GI50 (A549): > 100 µM (inactive) | GI50 (CAKI-1): > 100 µM (inactive) | GI50 (EKVX): > 100 µM (inactive) | GI50 (DLD-1): > 100 µM (inactive) | GI50 (LXFL 529): > 100 µM (inactive) | GI50 (SNB-19): > 100 µM (inactive) | GI50 (SK-MEL-28): > 100 µM (inactive) | GI50 (SW-620): > 100 µM (inactive) | GI50 (UO-31): > 100 µM (inactive) | GI50 (U-251): > 100 µM (inactive) | GI50 (RXF 393): > 100 µM (inactive) | GI50 (OVCAR-5): > 100 µM (inactive) | GI50 (HOP-92): > 100 µM (inactive) | GI50 (SK-OV-3): > 100 µM (inactive) | GI50 (OVCAR-4): > 100 µM (inactive) | GI50 (SF-295): > 100 µM (inactive) | GI50 (COLO 205): > 100 µM (inactive) | GI50 (NCI-H460): > 100 µM (inactive) | GI50 (SK-MEL-5): > 100 µM (inactive) | GI50 (UACC-62): > 100 µM (inactive) | GI50 (KM12): > 100 µM (inactive) | GI50 (MOLT-4): > 100 µM (inactive) | GI50 (HT-29): > 100 µM (inactive) | GI50 (HCT-116): > 100 µM (inactive) | GI50 (SN12C): > 100 µM (inactive) | GI50 (786-0): > 100 µM (inactive) | GI50 (SK-MEL-2): > 100 µM (inactive) | GI50 (KM-20L2): > 100 µM (inactive) | GI50 (M19-MEL): > 100 µM (inactive) | GI50 (CCRF-CEM): > 100 µM (inactive) | GI50 (SNB-75): > 100 µM (inactive) | GI50 (ACHN): > 100 µM (inactive) | GI50 (NCI-H226): > 100 µM (inactive) | GI50 (XF498): > 100 µM (inactive) | GI50 (OVCAR-3): > 100 µM (inactive)

O=C1C(Cl)N(c2ccccc2)C1c1c[nH]c2ccccc12 (stereo unspecified)
GI50 (Malme-3M): > 100 µM (inactive) | GI50 (SF-539): > 100 µM (inactive) | GI50 (DMS-114): > 100 µM (inactive) | GI50 (TK-10): > 100 µM (inactive) | GI50 (SF-268): > 100 µM (inactive) | GI50 (HOP-62): > 100 µM (inactive) | GI50 (RPMI-8226): > 100 µM (inactive) | GI50 (M14): > 100 µM (inactive) | GI50 (NCI-H522): > 100 µM (inactive) | GI50 (IGROV-1): > 100 µM (inactive) | GI50 (UACC-257): > 100 µM (inactive) | GI50 (HL-60): > 100 µM (inactive) | GI50 (OVCAR-8): > 100 µM (inactive) | GI50 (K562): > 100 µM (inactive) | GI50 (A549): > 100 µM (inactive) | GI50 (EKVX): > 100 µM (inactive) | GI50 (LXFL 529): > 100 µM (inactive) | GI50 (SNB-19): 48.9 µM (inactive) | GI50 (SK-MEL-28): > 100 µM (inactive) | GI50 (SW-620): > 100 µM (inactive) | GI50 (UO-31): 65.6 µM (inactive) | GI50 (U-251): > 100 µM (inactive) | GI50 (RXF 393): > 100 µM (inactive) | GI50 (OVCAR-5): 46 µM (inactive) | GI50 (HOP-92): > 100 µM (inactive) | GI50 (SK-OV-3): > 100 µM (inactive) | GI50 (OVCAR-4): > 100 µM (inactive) | GI50 (SF-295): > 100 µM (inactive) | GI50 (COLO 205): > 100 µM (inactive) | GI50 (NCI-H460): > 100 µM (inactive) | GI50 (SR): > 100 µM (inactive) | GI50 (SK-MEL-5): > 100 µM (inactive) | GI50 (UACC-62): > 100 µM (inactive) | GI50 (KM12): > 100 µM (inactive) | GI50 (MOLT-4): > 100 µM (inactive) | GI50 (HT-29): > 100 µM (inactive) | GI50 (HCT-116): > 100 µM (inactive) | GI50 (SN12C): > 100 µM (inactive) | GI50 (SK-MEL-2): > 100 µM (inactive) | GI50 (KM-20L2): > 100 µM (inactive) | GI50 (M19-MEL): > 100 µM (inactive) | GI50 (NCI-H23): > 100 µM (inactive) | GI50 (CCRF-CEM): > 100 µM (inactive) | GI50 (SNB-75): > 100 µM (inactive) | GI50 (XF498): > 100 µM (inactive) | GI50 (OVCAR-3): > 100 µM (inactive)

CCSc1c2ccccc2nc2c(OC)ccc(OC)c12
GI50 (TK-10): 33.8 µM (inactive) | GI50 (SF-268): 22.8 µM (inactive) | GI50 (HOP-62): 36.5 µM (inactive) | GI50 (M14): 35.7 µM (inactive) | GI50 (NCI-H522): 41.2 µM (inactive) | GI50 (IGROV-1): 26.7 µM (inactive) | GI50 (DMS-273): 21.9 µM (inactive) | GI50 (UACC-257): 22.4 µM (inactive) | GI50 (HL-60): 23.3 µM (inactive) | GI50 (A498): 31 µM (inactive) | GI50 (OVCAR-8): 22.1 µM (inactive) | GI50 (A549): 70.6 µM (inactive) | GI50 (EKVX): > 100 µM (inactive) | GI50 (SNB-78): 14.5 µM (inactive) | GI50 (SNB-19): 29.1 µM (inactive) | GI50 (SK-MEL-28): 19.8 µM (inactive) | GI50 (UO-31): 25.9 µM (inactive) | GI50 (U-251): 19.3 µM (inactive) | GI50 (RXF 393): 18.6 µM (inactive) | GI50 (OVCAR-5): 42.3 µM (inactive) | GI50 (HOP-92): 22.3 µM (inactive) | GI50 (SK-OV-3): 24.7 µM (inactive) | GI50 (SF-295): 25.2 µM (inactive) | GI50 (NCI-H460): 20.7 µM (inactive) | GI50 (SR): 23.9 µM (inactive) | GI50 (UACC-62): 20.6 µM (inactive) | GI50 (KM12): 24.7 µM (inactive) | GI50 (MOLT-4): 22 µM (inactive) | GI50 (HT-29): 25.7 µM (inactive) | GI50 (HCT-116): 20.1 µM (inactive) | GI50 (M19-MEL): 18.5 µM (inactive) | GI50 (NCI-H23): > 10 µM (inactive) | GI50 (CCRF-CEM): 36.3 µM (inactive) | GI50 (NCI-H226): 25.1 µM (inactive)

O=C1CCN2C(=O)CCN12
GI50 (Malme-3M): > 100 µM (inactive) | GI50 (DMS-114): > 100 µM (inactive) | GI50 (TK-10): > 100 µM (inactive) | GI50 (SF-268): > 100 µM (inactive) | GI50 (HOP-62): > 100 µM (inactive) | GI50 (RPMI-8226): > 100 µM (inactive) | GI50 (M14): > 100 µM (inactive) | GI50 (NCI-H522): > 100 µM (inactive) | GI50 (UACC-257): > 100 µM (inactive) | GI50 (HL-60): > 100 µM (inactive) | GI50 (A498): > 100 µM (inactive) | GI50 (OVCAR-8): > 100 µM (inactive) | GI50 (K562): > 100 µM (inactive) | GI50 (A549): > 100 µM (inactive) | GI50 (CAKI-1): > 100 µM (inactive) | GI50 (EKVX): > 100 µM (inactive) | GI50 (SNB-78): > 100 µM (inactive) | GI50 (LXFL 529): > 100 µM (inactive) | GI50 (SNB-19): > 100 µM (inactive) | GI50 (SK-MEL-28): > 100 µM (inactive) | GI50 (SW-620): > 100 µM (inactive) | GI50 (UO-31): > 100 µM (inactive) | GI50 (U-251): > 100 µM (inactive) | GI50 (OVCAR-5): > 100 µM (inactive) | GI50 (HOP-92): > 100 µM (inactive) | GI50 (SK-OV-3): > 100 µM (inactive) | GI50 (OVCAR-4): > 100 µM (inactive) | GI50 (SF-295): > 100 µM (inactive) | GI50 (COLO 205): > 100 µM (inactive) | GI50 (NCI-H460): > 100 µM (inactive) | GI50 (SR): > 100 µM (inactive) | GI50 (UACC-62): > 100 µM (inactive) | GI50 (KM12): > 100 µM (inactive) | GI50 (MOLT-4): > 100 µM (inactive) | GI50 (HT-29): > 100 µM (inactive) | GI50 (HCT-116): > 100 µM (inactive) | GI50 (SN12C): > 100 µM (inactive) | GI50 (786-0): > 100 µM (inactive) | GI50 (SK-MEL-2): > 100 µM (inactive) | GI50 (M19-MEL): > 100 µM (inactive) | GI50 (NCI-H23): > 100 µM (inactive) | GI50 (CCRF-CEM): > 100 µM (inactive) | GI50 (ACHN): > 100 µM (inactive) | GI50 (NCI-H226): > 100 µM (inactive) | GI50 (XF498): > 100 µM (inactive) | GI50 (OVCAR-3): > 100 µM (inactive)
